In paper PMC4748418 (Journal of chromatography. A, 2015):

Tests used:
α3β4α5 nAChR [1] = biological target: T1, α3β4α5 nAChR (Homo sapiens, UniProt P30532+P30926+P32297); assay: biochemical
α3β4 nAChR = α3β4 nAChR (Homo sapiens, UniProt P30926+P32297); assay: biochemical
α3β4α5 nAChR [2] = biological target: T1, α3β4α5 nAChR; conditions: agonist binding site

Chain of α3β4 nAChR (P32297 32-505): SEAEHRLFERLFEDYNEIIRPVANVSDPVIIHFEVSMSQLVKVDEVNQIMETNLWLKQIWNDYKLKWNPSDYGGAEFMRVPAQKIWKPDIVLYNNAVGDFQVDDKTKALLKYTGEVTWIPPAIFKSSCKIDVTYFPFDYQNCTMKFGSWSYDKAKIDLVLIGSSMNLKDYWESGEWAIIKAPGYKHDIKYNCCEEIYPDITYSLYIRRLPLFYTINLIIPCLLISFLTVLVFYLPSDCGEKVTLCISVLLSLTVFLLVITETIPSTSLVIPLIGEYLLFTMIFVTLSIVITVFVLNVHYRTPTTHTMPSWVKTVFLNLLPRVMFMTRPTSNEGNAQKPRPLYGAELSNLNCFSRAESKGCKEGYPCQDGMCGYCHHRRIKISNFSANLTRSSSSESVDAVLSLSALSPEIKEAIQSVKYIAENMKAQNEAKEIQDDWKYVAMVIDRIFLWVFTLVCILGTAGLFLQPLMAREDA
Chain of α3β4 nAChR (P30926 22-498): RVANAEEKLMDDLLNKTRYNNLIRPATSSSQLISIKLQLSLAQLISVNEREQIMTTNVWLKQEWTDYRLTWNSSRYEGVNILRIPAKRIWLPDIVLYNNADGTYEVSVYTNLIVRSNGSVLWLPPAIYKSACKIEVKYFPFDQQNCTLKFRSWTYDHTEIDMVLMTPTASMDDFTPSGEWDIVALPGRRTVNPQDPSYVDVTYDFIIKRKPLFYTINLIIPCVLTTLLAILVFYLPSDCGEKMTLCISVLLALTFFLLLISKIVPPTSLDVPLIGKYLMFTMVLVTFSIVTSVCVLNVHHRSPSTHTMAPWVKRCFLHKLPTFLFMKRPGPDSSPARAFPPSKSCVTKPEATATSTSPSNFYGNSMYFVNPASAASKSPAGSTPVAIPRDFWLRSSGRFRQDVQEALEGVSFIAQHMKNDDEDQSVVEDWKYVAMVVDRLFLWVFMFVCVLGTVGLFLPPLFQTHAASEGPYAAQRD
T1 sequence (P32297 32-505): as the sequence (P32297 32-505) above
T1 sequence (P30926 22-498): as the sequence (P30926 22-498) above
T1 sequence (P30532 23-468): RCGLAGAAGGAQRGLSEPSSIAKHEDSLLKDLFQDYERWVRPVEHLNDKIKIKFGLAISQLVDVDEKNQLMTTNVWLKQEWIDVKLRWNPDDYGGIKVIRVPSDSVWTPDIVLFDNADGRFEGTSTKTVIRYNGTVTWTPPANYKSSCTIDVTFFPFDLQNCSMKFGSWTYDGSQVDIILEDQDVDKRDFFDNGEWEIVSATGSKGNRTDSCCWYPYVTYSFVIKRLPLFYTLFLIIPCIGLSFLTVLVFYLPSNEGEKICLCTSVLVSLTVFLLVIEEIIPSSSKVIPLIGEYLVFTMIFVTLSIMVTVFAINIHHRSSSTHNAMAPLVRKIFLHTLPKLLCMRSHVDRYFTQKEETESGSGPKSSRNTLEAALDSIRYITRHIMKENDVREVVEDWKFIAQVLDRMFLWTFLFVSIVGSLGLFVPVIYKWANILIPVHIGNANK

SMILES	Ki (α3β4α5 nAChR [1])	Ki (α3β4 nAChR)	higher affinity for the α3β4α5 nAChR vs the α3β4 nAChR (α3β4α5 nAChR [2])	subtype selectivity between α3β4 and α3β4α5 nicotinic receptors (α3β4α5 nAChR [2])	Kd (α3β4α5 nAChR [1])	Kd (α3β4 nAChR)
c1cncc([C@@H]2CCCCN2)c1 [Anabasine]	0.0675 ± 0.0258 µM	0.528 ± 0.136 µM	10 fold	selective for the α3β4α5 nicotinic receptor		
c1cncc([C@@H]2CCCN2)c1 [Nornicotine]	0.0208 ± 0.0117 µM	0.0356 ± 0.0189 µM		no subtype selectivity	0.021 µM	0.036 µM
O=c1cccc2n1C[C@@H]1CNC[C@H]2C1 [Cytisine]	0.0054 ± 0.0035 µM	0.00852 ± 0.0057 µM			0.0054 µM	0.0085 µM
